Test results taken from patent US10624895B2, “Methods of sensitizing a patient with glioma to a therapeutic agent by administering small hairpin RNA targeting PDZ-RHOGEF” (THE TRANSLATIONAL GENOMICS RESEARCH INSTITUTE, priority 2016, dated 2020).

Test system: T98G cells overexpressing TROY
Experiment: TROY-induced transwell migration with erlotinib
Assay type: cell-based, human
Conditions: erlotinib (20 uM) 30 min prior to EGF (20 nM), 24 hours
Method: FIG. 40 depicts the impact of EGFR suppression by erlotinib on TROY-induced glioma cell migration. Parental T98G (copGFP) and T98G cells overexpressing TROY (TROY WT) were […] for 16 hours and placed into a transwell migration chamber. Cells were then pretreated with erlotinib (20 uM) for 30 min prior to EGF stimulation (20 nM). Cell migration was after 24 hours (* p<0.01).
Thus, the capacity of TROY to stimulate glioma cell invasion and increase TMZ and IR resistance could rely on the formation of a TROY-EGFR signaling complex. This association could activate, or potentiate, shared signaling pathways survival pathways as well as activate distinct TROY signaling pathways that mediate TROY receptor specific functional activities. Therefore, therapeutic approaches targeting TROY and/or both receptors may yield increased therapeutic benefit.

## C#Cc1cccc(Nc2ncnc3cc(OCCOC)c(OCCOC)cc23)c1 [erlotinib]
  TROY-induced glioma cell migration: suppresses TROY-induced glioma cell migration
